This is an account of results in ChEMBL document CHEMBL1201862, “PubChem BioAssay data set” (2004).

Some test systems named below: A498; A549; ACHN; HCC 2998; HCT-116; HCT-15; HOP-92; IGROV-1; MOLT-4; OVCAR-3; RPMI-8226; SF-295; SK-MEL-2; SK-MEL-5; SW-620; U-251; UO-31; SR.
What all share (assay): NCI tumour cell line growth inhibition, 48 h

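Grown in 96-well plates, cells were treated for 48 hours with each compound at five concentrations. Insufficient inhibition: endpoint recorded as highest concentration tested. The concentration for 50% growth inhibition is given as GI50.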 Calls of active or inactive are those of the source. No stated cut-off is given here; in the data, active = GI50 up to about 1.1 µM and inactive = higher.

As for `Nc1ncnc2c1ncn2C1OC(CSC(F)(F)F)C(O)C1O` (configuration not stated), the GI50 in the assay with A498 was > 100 µM (inactive); in the assay with A549, > 100 µM (inactive); in the assay with ACHN it was > 100 µM (inactive); in the assay on HCC 2998 it was > 100 µM (inactive); in the assay on HCT-116, > 100 µM (inactive); in the assay with HCT-15, over 100 µM. Also, the GI50 in the assay on HOP-92, in the assay with IGROV-1, with MOLT-4, with OVCAR-3, in the assay on RPMI-8226 and with SF-295 was > 100 µM (inactive) each time. Moreover, the GI50 in the assay on SK-MEL-2, in the assay on SK-MEL-5, in the assay with SW-620, with U-251 and in the assay on UO-31 was > 100 µM (inactive) in each case.
In the case of `Nc1ccc2nc(NCc3ccc(F)cc3)cnc2c1`, the GI50 in the assay on A549 is > 100 µM (inactive); in the assay on ACHN it was > 100 µM (inactive); in the assay with HCC 2998, > 100 µM (inactive); in the assay with HCT-116 it was > 100 µM (inactive); in the assay with HCT-15, over 100 µM; with IGROV-1 it was > 100 µM (inactive). Moreover, the GI50 was 50.1 µM (inactive) with MOLT-4; > 100 µM (inactive) in the assay with OVCAR-3; > 100 µM (inactive) with RPMI-8226; > 100 µM (inactive) in the assay on SF-295; > 100 µM (inactive) with SK-MEL-2; > 100 µM (inactive) with SK-MEL-5. Moreover, the GI50 in the assay on SR was 66.7 µM (inactive); in the assay on SW-620 it was > 100 µM (inactive); in the assay with U-251 it was > 100 µM (inactive); in the assay on UO-31, 21.3 µM (inactive).
For the compound `N#CC(C(=N/O)/C(=N\O)C(C#N)c1ccccc1)c1ccccc1` (configuration not stated), the GI50 is > 100 µM (inactive) with A498; > 100 µM (inactive) with A549; > 100 µM (inactive) in the assay with ACHN; > 100 µM (inactive) with HCC 2998; > 100 µM (inactive) in the assay with HCT-116; over 100 µM in the assay with HCT-15. Also, the GI50 with HOP-92, in the assay on IGROV-1, in the assay on MOLT-4, with OVCAR-3, in the assay with RPMI-8226 and in the assay on SF-295 was > 100 µM (inactive) each time. The GI50 in the assay on SK-MEL-2, in the assay on SK-MEL-5, in the assay with SW-620, in the assay on U-251 and in the assay on UO-31 was > 100 µM (inactive) in each case.
As to `O=C1c2ccccc2C(=O)N1C/C=N/NS(=O)(=O)c1ccc(Cl)cc1`, the GI50 was > 100 µM (inactive) with A498; > 100 µM (inactive) in the assay with A549; > 100 µM (inactive) in the assay with ACHN; > 100 µM (inactive) in the assay with HCC 2998; > 100 µM (inactive) in the assay on HCT-116; over 100 µM in the assay on HCT-15. Also, the GI50 in the assay with IGROV-1, in the assay with MOLT-4, with RPMI-8226, in the assay with SF-295, in the assay on SK-MEL-2 and with SK-MEL-5 was > 100 µM (inactive) each time. The GI50 in the assay with SR, in the assay on SW-620, in the assay on U-251 and in the assay with UO-31 was > 100 µM (inactive) throughout.
On to `C[C@@H](NC1CCCC[C@H]1O)c1ccccc1` (some centres not stated), for which the GI50 with A498 is > 100 µM (inactive); with A549, > 100 µM (inactive); in the assay on ACHN, > 100 µM (inactive); with HCC 2998 it was > 100 µM (inactive); with HCT-116, > 100 µM (inactive); with HCT-15, over 100 µM. The GI50 with HOP-92, in the assay with IGROV-1, in the assay on MOLT-4, with OVCAR-3, with RPMI-8226 and in the assay on SF-295 was > 100 µM (inactive) each time. For the same compound, the GI50 in the assay on SK-MEL-2, with SK-MEL-5, in the assay on SW-620, in the assay on U-251 and in the assay with UO-31 was > 100 µM (inactive) throughout.
With `Cc1cc2c(C=O)n[nH]c2c(C#N)c1C`, the GI50 with A498 was 29.2 µM (inactive); in the assay with A549, > 100 µM (inactive); with ACHN it was 63.5 µM (inactive); in the assay on HCC 2998, > 100 µM (inactive); with HCT-116, 30.4 µM (inactive); with HCT-15, 32.4 µM. The GI50 in the assay on HOP-92 was 31.3 µM (inactive); in the assay with IGROV-1, 67 µM (inactive); in the assay with MOLT-4, > 100 µM (inactive); with OVCAR-3 it was 48 µM (inactive); with RPMI-8226, > 100 µM (inactive); with SF-295 it was 44.1 µM (inactive). Also, the GI50 in the assay on SK-MEL-2 was > 100 µM (inactive); in the assay with SK-MEL-5, 32.6 µM (inactive); with SW-620, 40.6 µM (inactive); in the assay on U-251 it was 60.3 µM (inactive); in the assay on UO-31, 34.5 µM (inactive).
`CCN(CC)C(=O)c1cccc2c(OC)ccc(OC)c12`: the GI50 with A498 is > 100 µM (inactive); in the assay with A549, > 100 µM (inactive); with ACHN, > 100 µM (inactive); with HCC 2998, > 100 µM (inactive); in the assay with HCT-116, > 100 µM (inactive); in the assay with HCT-15, over 100 µM. For the same compound, the GI50 in the assay with IGROV-1, in the assay on MOLT-4, in the assay with OVCAR-3, in the assay with RPMI-8226, in the assay on SF-295 and in the assay on SK-MEL-2 was > 100 µM (inactive) each time. For the same compound, the GI50 in the assay on SK-MEL-5, in the assay on SR, in the assay with SW-620, with U-251 and in the assay on UO-31 was > 100 µM (inactive) throughout.
As for `CCOC(=O)/C(=C/c1ccc(C(=O)OC)cc1)N(CC)CC`, the GI50 is 24.5 µM (inactive) with A549; 60.5 µM (inactive) in the assay on ACHN; 99.5 µM (inactive) in the assay on HCC 2998; 37.2 µM (inactive) in the assay with HCT-116; 33.3 µM in the assay on HCT-15; 49.9 µM (inactive) in the assay with HOP-92. The GI50 with IGROV-1 is > 100 µM (inactive); in the assay on MOLT-4, 29.1 µM (inactive); with OVCAR-3, 22.4 µM (inactive); with RPMI-8226, 42.5 µM (inactive); in the assay on SF-295, > 10 µM (inactive); in the assay on SK-MEL-2, 44.9 µM (inactive). Moreover, the GI50 is 37.7 µM (inactive) in the assay on SK-MEL-5; 47.9 µM (inactive) in the assay on SR; 35.3 µM (inactive) with SW-620; 42 µM (inactive) in the assay with U-251; 37.2 µM (inactive) in the assay with UO-31.
Consider `c1ccc2c(OCCSCCCCCCCCCCSCCOc3cccc4ccccc34)cccc2c1`, for which the GI50 in the assay on A498 was > 100 µM (inactive); in the assay on A549 it was > 100 µM (inactive); in the assay on ACHN, > 100 µM (inactive); in the assay on HCC 2998 it was > 100 µM (inactive); in the assay on HCT-15 it was over 100 µM; in the assay with HOP-92, > 100 µM (inactive). The GI50 with IGROV-1, in the assay with MOLT-4, in the assay with OVCAR-3, in the assay on RPMI-8226, in the assay with SF-295 and with SK-MEL-2 was > 100 µM (inactive) throughout. The GI50 with SK-MEL-5, in the assay on SW-620, in the assay on U-251 and with UO-31 was > 100 µM (inactive) throughout.
In the case of `CC/C(=N/O)c1ccc2[nH]c3c(C)cc([N+](=O)[O-])c(C)c3c2c1`, the GI50 was 17.1 µM (inactive) in the assay on A549; 25.1 µM (inactive) with ACHN; 83.8 µM (inactive) in the assay with HCC 2998; 41.8 µM (inactive) with HCT-116; 51.1 µM in the assay with HCT-15; 29.6 µM (inactive) with MOLT-4. Moreover, the GI50 in the assay with OVCAR-3 was 36.1 µM (inactive); in the assay with RPMI-8226 it was 52.7 µM (inactive); in the assay on SF-295, 52 µM (inactive); in the assay on SK-MEL-2 it was > 100 µM (inactive); in the assay with SK-MEL-5 it was 57.3 µM (inactive); in the assay on SR, 24.4 µM (inactive). Also, the GI50 in the assay with SW-620 was 84.7 µM (inactive); with UO-31 it was 57.8 µM (inactive).
For the compound `CS(=O)(=O)NNS(=O)(=O)c1ccccc1`, the GI50 is > 100 µM (inactive) in the assay with A498; > 100 µM (inactive) in the assay on A549; > 100 µM (inactive) in the assay with ACHN; > 100 µM (inactive) in the assay on HCC 2998; > 100 µM (inactive) with HCT-116; over 100 µM in the assay with HCT-15. Besides, the GI50 in the assay with IGROV-1, with MOLT-4, with RPMI-8226, in the assay with SF-295, in the assay with SK-MEL-2 and in the assay with SK-MEL-5 was > 100 µM (inactive) in each case. In addition, the GI50 with SR, in the assay on SW-620, in the assay on U-251 and in the assay with UO-31 was > 100 µM (inactive) throughout.
As for `Nc1nc2sc3ccccc3c(=O)n2n1`, the GI50 with A549 is > 100 µM (inactive); with ACHN, > 100 µM (inactive); in the assay with HCC 2998, > 100 µM (inactive); in the assay with HCT-116 it was > 100 µM (inactive); in the assay with HCT-15, over 100 µM; with HOP-92, > 100 µM (inactive). For the same compound, the GI50 in the assay with IGROV-1, with MOLT-4, in the assay on OVCAR-3, in the assay on RPMI-8226, with SF-295 and in the assay with SK-MEL-2 was > 100 µM (inactive) each time. In addition, the GI50 in the assay with SK-MEL-5, in the assay with SR, in the assay with SW-620, in the assay with U-251 and in the assay on UO-31 was > 100 µM (inactive) each time.
